These results are taken from article PMC9364316, “Macromolecular and Solution Properties of the Recombinant Fusion Protein HUG” (Biomacromolecules, 2022).

One may read the Kd as the equilibrium constant for the complex coming apart. Read a low Kd as a tighter complex.

This assay deals with T1, HUG (HELP-UnaG) (Anguilla japonica, UniProt P0DM59).
T1 construct: entire UnaG (139 aa) fused to the C-terminus of the synthetic human elastin-like polypeptide HELP (536 aa, VAPGVG hexapeptide repeats); fusion of 675 aa, 60,406 Da; expressed in E. coli, purified by inverse phase transition
In words: fluorescence titration (ex […] nm, em […] nm), nonlinear fit of […] binding model.

T1 sequence (P0DM59 whole entry, the tested form may be a part): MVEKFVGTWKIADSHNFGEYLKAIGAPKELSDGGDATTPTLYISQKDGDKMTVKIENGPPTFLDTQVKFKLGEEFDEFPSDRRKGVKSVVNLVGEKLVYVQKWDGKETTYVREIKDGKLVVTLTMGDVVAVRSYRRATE

With `C=CC1=C(C)/C(=C/c2[nH]c(Cc3[nH]c(/C=C4\NC(=O)C(C)=C4C=C)c(C)c3CCC(=O)O)c(CCC(=O)O)c2C)NC1=O` [bilirubin], the Kd was 1.1 nM. In other words, the single-digit nanomolar range.
